Source: PubChem BioAssay (NCI)
Where “and” joins values, the source holds several entries; their conditions need not be identical. Equal entries are not always repeated.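 Compound exposure: 48 hours, 5 concentrations, 96-well plates. GI50 is the concentration that inhibits growth by half. TGI: total growth inhibition.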 *1 amine or outer side, *2 acyl side, *3 side chain or, on linkers, in order; H or OH if unused. Where a SMILES comes first, the peptide text is derived from it. Bridges are numbered along the chain shown (N, C = ends). Roman numbers before positions name the chains, in order. X23 = CCCCCCCCCCCCCCC(=O)NC(CCCCN[*:2])C(=O)CN1CCCC1C(=O)[*:1]

Columns and labels:
Test in all cases: NCI-60 cell line screen, 48 h
K-562 leukemia = test system: K-562 leukemia
SNB-19 CNS = test system: SNB-19 CNS
SF-539 CNS = test system: SF-539 CNS
SNB-75 CNS = test system: SNB-75 CNS
NCI-H226 lung = test system: NCI-H226 lung
EKVX NSCLC = test system: EKVX NSCLC
RXF 393 renal = test system: RXF 393 renal
786-0 renal = test system: 786-0 renal
MDA-MB-435 = test system: MDA-MB-435
BT-549 breast = test system: BT-549 breast

| Compound | TGI (K-562 leukemia) | TGI (SNB-19 CNS) | TGI (SF-539 CNS) | TGI (SNB-75 CNS) | TGI (NCI-H226 lung) | TGI (EKVX NSCLC) | TGI (RXF 393 renal) | TGI (786-0 renal) | TGI (MDA-MB-435) | TGI (BT-549 breast) | GI50 (K-562 leukemia) | GI50 (SNB-19 CNS) | GI50 (SF-539 CNS) | GI50 (SNB-75 CNS) | GI50 (NCI-H226 lung) | GI50 (EKVX NSCLC) | GI50 (RXF 393 renal) | GI50 (MDA-MB-435) | GI50 (BT-549 breast) |
| --- | --- | --- | --- | --- | --- | --- | --- | --- | --- | --- | --- | --- | --- | --- | --- | --- | --- | --- | --- |
| O=C1NC2(NC(=O)C1=O)Nc1ccccc1S2 | > 64.7 µM | > 100 µM | 62.7 µM | > 100 µM | > 100 µM | > 100 µM | > 100 µM | 48.6 µM | – | – | – | – | – | – | – | – | – | – | – |
| O=CN(O)CC(=O)O.[Ni] | > 100 µM | > 100 µM | > 100 µM | > 100 µM | > 100 µM | > 100 µM | > 100 µM | > 100 µM | > 100 µM | > 100 µM | – | – | – | – | – | – | – | – | – |
| COc1cccc2c1C(=O)c1c(O)c3c(c(O)c1C2=O)C[C@@](O)(C(C)=O)C[C@@H]3OC1CC(N(C)C)C(O)C(C)O1 (stereo partly specified) | 1.09 µM and 0.182 µM | – | – | – | – | – | – | 1.36 µM | 0.00234 µM | 0.00562 µM | 0.00456 µM | 0.0396 µM | 0.0173 µM | 0.138 µM and 0.0219 µM | 0.00108 µM | 0.126 µM and 0.0588 µM | 0.0487 µM and < 0.0151 µM | – | – |
| Nc1nccc2c1ncn2C1C=C(CO)C(O)C1O (stereo unspecified) | > 1000 µM | > 1000 µM | > 1000 µM | > 1000 µM | > 1000 µM | – | > 1000 µM | – | – | – | 0.249 µM | > 1000 µM | 711 µM | > 1000 µM | > 1000 µM | – | 851 µM | – | – |
| CC(=O)C1=C(C)N(c2ccc(C)cc2)C2(O)C=CC(=O)C3=C(O)c4ccccc4C(=O)C312 (stereo unspecified) | > 100 µM | > 100 µM | 97.6 µM | 49.9 µM | 64.4 µM | 61.2 µM | > 100 µM | > 100 µM | – | 38.9 µM | – | – | – | – | – | – | – | – | – |
| OCCSCc1cc(Cl)cc(Cl)c1O | > 100 µM | > 100 µM | – | – | > 100 µM | > 100 µM | > 100 µM | > 100 µM | > 100 µM | > 100 µM | – | – | – | – | – | – | – | – | – |
| NS(=O)(=O)c1ccc(N=Nc2ccc(O)c(O)c2)cc1 | > 100 µM | 84 µM | 45.1 µM | 60.8 µM | 40.8 µM | > 100 µM | 34.8 µM | > 100 µM | 32.2 µM | 14.4 µM | – | – | – | – | – | – | – | – | – |
| CCCCCCCCCCCCCCC(=O)NC(CCCCNC(=O)C1CCCN1C(=O)C(CCCCN)NC(=O)C(CCCCN)NC(=O)C(CCCCN)NC(=O)C(CCCNC(=N)N)NC(=O)C(CCCCN)NC(=O)C(N)C(C)C)C(=O)CN1CCCC1C(=O)NCC(=O)NC(Cc1ccccc1)C(=O)N1CCCC1C(=O)NC(CO)C(=O)NC(Cc1ccc(O)cc1)C(=O)NC(CCCCN)C(=O)NC(CC(C)C)C(=O)NC(CCCNC(=N)N)C(=O)N1CCCC1C(=O)NCC(N)=O (stereo unspecified) (I: GFPSYKLRPG-NH2 / II: H-VKRKKKP; linker I:N-II:C via X23; configuration not given here) | 44.4 µM | 76.6 µM | 75.1 µM | 76.7 µM | 49.7 µM | 58.7 µM | 51.1 µM | – | 41.6 µM | 54.7 µM | 9.27 µM | 31.4 µM | 27.7 µM | 31.5 µM | 23.7 µM | 20.3 µM | 20.7 µM | 3.15 µM | 23.4 µM |
| CC1C(O)[C@@]2(OC[C@@]34C(=O)CC5(O)[C@H](CCC6Cc7nc8c(nc7C[C@]65C)CC5CC[C@@H]6C7=C[C@H]9O[C@@]%10(O[C@@](C)(CO)C[C@@H]%10O)C(C)[C@@]9(O)[C@]7(C)[C@@H](O)CC6[C@]5(C)C8)C3=CC[C@H]4C2C)OC1(C)C (stereo partly specified) | 0.0798 µM | 0.206 µM | 0.00487 µM | 0.215 µM | > 3.55 µM | 0.499 µM | < 0.000355 µM | – | – | – | – | – | – | – | – | – | – | – | – |
| O=C1/C(=C/c2ccc3c(c2)OCO3)Sc2scc(-c3ccc(O)c(O)c3)[n+]21 | 2.93 µM | 36.2 µM | 7.84 µM | 5.54 µM | > 100 µM | 8.25 µM | – | 5.48 µM | 13.5 µM | 6.13 µM | – | – | – | – | – | – | – | – | – |
| Cc1cc(O)c2cc3c(O)c(O)ccc3cc2c1 | 3.33 µM | > 100 µM | 3.27 µM | 8.95 µM | 5.63 µM | 24.7 µM | 14.1 µM | > 47.8 µM | 22.8 µM | > 44.3 µM | – | – | – | – | – | – | – | – | – |
| CCOC(=O)c1c(SC)nc(-c2ccc(Cl)cc2)sc1=N | > 100 µM | > 100 µM | > 100 µM | 99.4 µM | 80.4 µM | 55.2 µM | > 100 µM | > 100 µM | > 100 µM | > 100 µM | – | – | – | – | – | – | – | – | – |
| O=[N+]([O-])c1ccc(/C=N/n2c(CCc3n[nH]c(=S)n3/N=C/c3ccc([N+](=O)[O-])o3)n[nH]c2=S)o1 | > 100 µM | – | > 100 µM | – | > 100 µM | > 100 µM | 32.1 µM | 31.9 µM | 35.3 µM | – | – | – | – | – | – | – | – | – | – |
| O=CNNC(=O)CSc1nc2ccc(I)cc2c(=O)n1Cc1ccccc1 | > 100 µM | > 100 µM | > 100 µM | > 100 µM | > 100 µM | 69.7 µM | 81.4 µM | > 100 µM | > 100 µM | 99 µM | – | – | – | – | – | – | – | – | – |
| Cc1ccc([S+](c2ccccc2)c2cc(C)ccc2C)cc1 (stereo unspecified) | > 100 µM | > 100 µM | > 100 µM | 2.9 µM | – | > 100 µM | – | > 100 µM | – | – | – | – | – | – | – | – | – | – | – |
| COC1=CCC2=C(CCN(C(=O)C3CC3)C2Cc2ccc(OC)c(O)c2)C1 (stereo unspecified) | > 100 µM | > 100 µM | > 100 µM | 67.4 µM | > 100 µM | > 100 µM | 59.5 µM | > 100 µM | 68.8 µM | – | – | – | – | – | – | – | – | – | – |
| CC(=O)OCC1OC(N2C(=O)CC(N)=Nc3ccccc32)C(OC(C)=O)C(OC(C)=O)C1OC(C)=O (stereo unspecified) | > 100 µM | > 100 µM | 67.5 µM | > 100 µM | – | > 100 µM | 95.1 µM | > 100 µM | > 100 µM | > 100 µM | – | – | – | – | – | – | – | – | – |
| O=C1CC(NC2CC(=O)c3c(Br)sc(Br)c32)c2c(Br)sc(Br)c21 (stereo unspecified) | > 21.5 µM | 28.4 µM | – | 31.4 µM | 34.1 µM | 22.7 µM | 8.86 µM | 2.9 µM | 11.2 µM | 38.9 µM | – | – | – | – | – | – | – | – | – |
| Oc1ccc(NCc2cc(O)ccc2O)cc1 | 55.2 µM | 35.1 µM | 56.4 µM | 33 µM | 50.4 µM | 31.2 µM | 28.8 µM | 31.9 µM | 32 µM | 25.8 µM | – | – | – | – | – | – | – | – | – |
| CC(C)(C)OC(=O)N1CCCC1C(=O)NCCNc1ccc(NCCNC(=O)C2CCCN2C(=O)OC(C)(C)C)c2c1C(=O)c1ccccc1C2=O (stereo unspecified) | > 100 µM | – | 30.1 µM | 87.9 µM | 46.6 µM | > 100 µM | – | 28 µM | 39.8 µM | 25.7 µM | – | – | – | – | – | – | – | – | – |
| CN(CCNC(=O)c1cn(C)c2c1ccc1cc(Cl)ccc12)CCNC(=O)c1cn(C)c2c1ccc1cc(Cl)ccc12 | 13.6 µM | – | 9.35 µM | – | 77.8 µM | 4.04 µM | – | – | 3.47 µM | 21.9 µM | – | – | – | – | – | – | – | – | – |
